# Laboratory results: US20120100609A1, “N-LINKED GLYCAN BIOSYNTHESIS MODULATORS” (priority 2009, published 2012)
# System: N-linked glycans of CHO cells
# Test: N-glycan profiling of treated CHO cells by normal phase HPLC (PNGaseF release, 2AB label)
# Assay type: cell-based, Chinese Hamster
# Details: CHO cells treated with compound, doses in uM
# Protocol: N-linked glycans were purified from CHO cell cultures and different N-linked glycan structural peaks were separated by normal phase HPLC. For the analyses, cultured CHO cells were treated with and without the test compounds as described above and then harvested for N-glycan profiling. The spent medium was decanted and the cells were rinsed 3 times with PBS and detached with 5 mM EDTA/PBS. N-glycans were released from cells using PNGaseF (Prozyme, Cat# GKE-5006) as described by the manufacture. Released glycans were labeled with […] (2AB) (Sigma, Cat# A89804) as described by the manufacture. Non-incorporated 2AB was removed using a Discovery DPA-6S column. Briefly, the column was pre-equilibrated 2× with 1 ml 97% ACN. Samples were loaded by adding 1 ml 97% acetonitrile (ACN) to the reaction mix. The column was washed 4× with 1 ml 97% CAN. 2AB-labeled N-glycans were then eluted 2× with 0.6 ml water, dried in a vacuum centrifuge, resuspended and then analyzed by normal phase HPLC(NP-HPLC). Analogous experiments were run with Castanospermine for comparison. The results are illustrated in FIGS. 23-30. Purified 2AB-N-glycans were separated (NP-HPLC) on a 4.6×250 mm TSK Gel-Amide-80 column (Tosoh Bioscience). A gradient was run from 70% A to 50% A over 40 min at a flow rate of 1.2 ml/min (Solvent A: Acetonitrile, Solvent B: 50 mM ammonium formate pH4.4). Glucose units were determined based on 2AB-labeled glucose oligomer ladder (Prozyme). 2AB-labeled N-glycan standards (Prozyme) were run and assigned glucose units.
row,Compound,specific N-linked glycan peaks of the HPLC profile (peak areas as % of the untreated Cntr peak area)
1,"CCOc1cc(/C=C(\C#N)c2n[nH]c(N)c2C#N)ccc1O [compound 12, (Z)-5-amino-3-(1-cyano-2-(3-ethoxy-4-hydroxyphenyl)vinyl)-1H-pyrazole-4-carbonitrile]",increases and decreases of specific peaks
2,"Cc1ccc(NC(=O)c2c(NC(=O)c3cccnc3)sc3c2CCC3)cc1 [compound 10, N-(3-(p-tolylcarbamoyl)-5,6-dihydro-4H-cyclopenta[b]thiophen-2-yl)nicotinamide]",increases and decreases of specific peaks
3,COc1ccc(CN/C=C2\C(=O)N(c3nc4ccccc4s3)N=C2c2ccccc2)cc1 [compound 11],increases and decreases of specific peaks
4,"O[C@H]1[C@H](O)[C@@H](O)CN2CC[C@H](O)[C@H]12 [Castanospermine, reference compound]",N-glycan Profile Changes
